Experimental data published in patent US20160067208A1, “ADHESION PREVENTING AGENT” (FARNEX INCORPORATED, priority 2013, published 2016).

Legend:
Type in all cases: physicochemical
[1] = Viscosity of the compound itself (Gemini II, Malvern); conditions: 25° C., at shear velocity of 92 1/s
Experimental: In addition, the amphipathic compound to be used for the adhesion preventing agent of the present invention has low viscosity in itself. Specifically, the amphipathic compound to be used for the adhesion preventing agent of the present invention has a viscosity of preferably 15.0 Pa·s or less, more preferably 11.0 Pa·s or less, and further preferably 6.0 Pa·s or less as measured at 25° C. in itself. The viscosity can be measured using, for example, a viscosity and viscoelasticity measuring apparatus (Gemini II, Malvern Instruments Ltd.) at 25° C.
The viscosity of each of the compounds described in the Examples 1-7 was measured using a viscosity/viscoelasticity measuring instrument (Gemini II, Malvern) at the temperature of 25° C.

[2] = SAXS analysis of compound/water system (liquid crystal formation); conditions: compound/water system gel, 50% by mass in water-excess condition, room temperature (25° C.)
Source text: Whether or not a liquid crystal structure has a cubic lattice may be determined by a small-angle X-ray scattering (SAXS) method, for the purpose of confirming liquid crystal formation. First, an amphipathic compound/water system sample with a predetermined concentration can be filled into an X-ray capillary tube made of quartz, for example, and the capillary tube is sealed with an oxy-fuel burner, and subjected to SAXS assay.
Mono-O-(5,9,13-trimethyltetradeca-4,8,12-trienoyl)glycerol synthesized in Example 1 and pure water were introduced into a mixing device at the concentration of 50% by mass of mono-O-(5,9,13-trimethyltetradeca-4,8,12-trienoyl)glycerol (in water-excess condition), and they were mixed at room temperature (25° C.) and left for 24 hours to obtain a homogeneous mixture. Then the separated water was removed. Thus, a sample of mono-O-(5,9,13-trimethyltetradeca-4,8,12-trienoyl)glycerol/water system was obtained as a white turbid to colorless transparent gel composition in appearance (it was referred to below as the gel sample).
Subsequently, the gel sample was analyzed by small-angle x-ray scattering (SAXS). The NANO-Viewer nano-scale X-ray structure analysis equipment (Rigaku) was used for SAXS analysis, which was performed by X-ray irradiation at room temperature (25° C.), 40 kV, 50 mA, wavelength λ=0.1542 nm (Cu-Kα).
Each of the compounds synthesized in Example 32, 33, 43, 45, 49, and 50 and water were homogeneously mixed in accordance with the same procedure as in Example 9 to obtain a sample of each compound/water system being a gel in appearance. SAXS analysis of these gel samples was performed in the same manner as in Example 9. […]

[3] = Shear viscosity of liquid crystal gels; conditions: gel prepared by addition of water, 25° C.
Experimental: (§1) The viscosity was measured for the gels prepared by addition of water to the compounds synthesized in Examples 1, 4, and 5. Specifically, for the gel samples obtained by mixing homogeneously according to the same procedure as in Example 9, the shear viscosity was measured at a temperature of 25° C., using a viscosity and viscoelasticity measuring apparatus (Gemini II, Malvern Instruments Ltd.; cone plate φ25, cone angle 1°).
as §1, with “45” for “1, 4,”, “50, and C17 glycerin ester synthesized in Example 13.” for “5.”

[4] = Preparability and temperature stability of comparative formulations; conditions: 0.65 cs dimethicone (GMO: 1.00 g in 2.33 g)
Experimental: 2.33 g of 0.65 cs dimethicone (Dow Corning Q7-9180 Silocon Fluid 0.65 CST) was added to 1.00 g of GMO (Rikemal XO-100L, Riken Vitamin Co., Ltd.), followed by stirring to prepare a solution.
Additionally, an o/w dispersion of GMO having the same composition as test sample 18 as described above was prepared, and stored at a refrigerated temperature (7° C.). […] Thus, it is shown that the o/w dispersion of GMO has low temperature stability.
In accordance with Example 14 described in JP Patent Publication No. 2008-528463A, GDO (4.30 g), SPC (Lecinol S-10E, 2.90 g), P80 (1.80 g), and ethanol (1.00 g) were mixed to prepare a liquid crystal precursor composition (GDO/SPC/P80/EtOH=43:29:18:10).
6 mL of distilled water was added to 1.388 g of the liquid crystal precursor composition, followed by stirring for 1 hour to prepare test sample 6 (GDO/SPC/P80/EtOH/water=[…]:81.2).
Thus, it was impossible to prepare a lipid/dimethicone preparation, unlike test samples 13, 14, 21 and 23. […] It was considered that this was due to high viscosity of the sample.

Row | Structure (SMILES) | Viscosity [1] [Pa·s] | liquid crystal structure (SAXS peak value ratio) [2] | Viscosity ([3]; shear velocity 10 1/s) [Pas · sec] | Viscosity ([3]; shear velocity 105 1/s) [Pas · sec] | state / solubility in dimethicone [4]
1 | CC(C)=CCC/C(C)=C/CC/C(C)=C/CCC(C)=CCOCC(O)C(O)CO (stereo not drawn) [Example 45, mono-O-(3,7,11,15-tetramethylhexadeca-2,6,10,14-tetraenyl)erythritol] | 1.9 | cubic liquid crystals that belong to the crystallographic space group Pn3m | 314 | 4.3 | 
2 | CC(C)=CCC/C(C)=C/CC/C(C)=C/CCC(C)=CCCCOCC(CO)(CO)CO [Example 50, mono-O-(5,9,13,17-tetramethyloctadeca-4,8,12,16-tetraenyl)pentaerythritol] | 0.78 | reverse hexagonal liquid crystals | 81 | 14 | 
3 | CCCCCCCC/C=C\CCCCCCCC(=O)OCC(O)CO (stereo not drawn) [GMO, Glyceryl Monooleate] |  |  |  |  | crystals were precipitated
